According to US7666875B2, “Hydantoin compounds” (Eisai R&D Management Co., Ltd., priority 2005, dated 2010):
pIC50: −log10 of the molar value.

These molecules were tested against T1, human T-bet (Homo sapiens, UniProt Q9UL17) (assay: HEKT-bet-luc assay (T-bet dependent luciferase reporter in engineered HEK cells)). Conditions: Table 4; HEKT-bet cells, compound 24 hours; IC50 normalized to reference ER-213038; read-out: IC50.
T1 construct: expressed in transfected cells; host or cells: engineered HEK cells (HEKT-bet)
T1 sequence (Q9UL17 1-535): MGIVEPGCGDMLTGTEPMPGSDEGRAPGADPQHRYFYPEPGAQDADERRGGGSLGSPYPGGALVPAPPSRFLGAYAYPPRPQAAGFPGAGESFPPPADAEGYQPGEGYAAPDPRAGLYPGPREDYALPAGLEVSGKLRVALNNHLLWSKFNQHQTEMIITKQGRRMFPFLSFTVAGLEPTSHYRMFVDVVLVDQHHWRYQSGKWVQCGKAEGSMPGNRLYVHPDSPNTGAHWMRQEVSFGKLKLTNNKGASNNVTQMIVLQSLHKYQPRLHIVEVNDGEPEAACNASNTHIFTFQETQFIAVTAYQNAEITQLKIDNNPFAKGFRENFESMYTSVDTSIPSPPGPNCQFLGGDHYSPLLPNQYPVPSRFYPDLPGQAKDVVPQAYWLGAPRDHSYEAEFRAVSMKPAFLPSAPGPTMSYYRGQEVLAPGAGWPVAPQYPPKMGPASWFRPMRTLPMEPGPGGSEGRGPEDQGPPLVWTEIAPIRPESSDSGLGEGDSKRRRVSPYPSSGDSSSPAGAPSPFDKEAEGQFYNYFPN
Format: cell-based
In short: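 HEK cells expressing human T-bet and a T-box element–luciferase reporter were treated with compound for 24 h, then luciferase was read by luminescence. IC50 was scaled between uninhibited signal and maximal inhibition, then normalized to a same-plate reference compound multiplied by its established potency.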

In order of rising pIC50:
1. CCN1C(=O)N(CCCOc2ccccc2)C(=O)C12CCN(Cc1cccc3ccccc13)CC2 [Example 260]  6.31
2. C#CCOc1ccc(CN2CCC3(CC2)C(=O)N(Cc2cccc(OC)c2)C(=O)N3CCOC)cc1OC [Example 261]  6.31
3. COCCN1C(=O)N(Cc2cccc(OC)c2)C(=O)C12CCN(Cc1ccc3c(c1)Cc1ccccc1-3)CC2 [Example 257]  6.32
4. COCCN1C(=O)N(Cc2cccc(OC)c2)C(=O)C12CCN(Cc1cccc(-c3ccoc3)c1)CC2 [Example 258]  6.32
5. COCCN1C(=O)N(Cc2cccc(OC)c2)C(=O)C12CCN(Cc1cccc(-c3cccc(OC)c3)c1)CC2 [Example 259]  6.32
6. COCCN1C(=O)N(Cc2cccc(-n3cccc3)c2)C(=O)C12CCN(Cc1ccccc1)CC2 [Example 256]  6.33
7. COCCN1C(=O)N(Cc2cccc(OC)c2)C(=O)C12CCN(Cc1cc(OC)ccc1F)CC2 [Example 255]  6.34
8. COCCN1C(=O)N(Cc2ccc3ccccc3c2)C(=O)C12CCN(Cc1ccc3ccccc3c1)CC2 [Example 250]  6.35
9. O=C1N(C/C=C/c2ccccc2)C(=O)C2(CCN(Cc3cccc4ccccc34)CC2)N1CCn1cccc1 [Example 251]  6.35
10. CCN1C(=O)N(CCCc2ccccc2)C(=O)C12CCN(Cc1cccc(C)c1)CC2 [Example 252]  6.35
11. COCCN1C(=O)N(Cc2cc(F)cc(F)c2)C(=O)C12CCN(Cc1cc(OC)cc(OC)c1)CC2 [Example 253]  6.35
12. COCCN1C(=O)N(Cc2cccc(OC)c2)C(=O)C12CCN(Cc1cccc(-c3ccco3)c1)CC2 [Example 254]  6.35
13. COCCN1C(=O)N(Cc2cccc(OC)c2)C(=O)C12CCN(Cc1cc(OC)c3c(c1)OCO3)CC2 [Example 244]  6.36
14. COCCN1C(=O)N(Cc2cccc(OC)c2)C(=O)C12CCN(Cc1nn(-c3ccccc3)nc1C)CC2 [Example 245]  6.36
15. COCCN1C(=O)N(CCCC2CCCCC2)C(=O)C12CCN(Cc1ccccc1)CC2 [Example 246]  6.36
16. O=C1N(C/C=C/c2ccccc2)C(=O)C2(CCN(Cc3cccc4ccccc34)CC2)N1Cc1cccc2cccnc12 [Example 247]  6.36
17. COCCN1C(=O)N(CCCc2ccccc2)C(=O)C12CCN(Cc1cccc(C)c1)CC2 [Example 248]  6.36
18. COCCCN1C(=O)N(Cc2cccc(OC)c2)C(=O)C12CCN(Cc1cc(OC)cc(OC)c1)CC2 [Example 249]  6.36
19. COc1cccc(CN2C(=O)N(Cc3ccccn3)C3(CCN(Cc4cccc5ccccc45)CC3)C2=O)c1 [Example 241]  6.37
20. COCCN1C(=O)N(Cc2cccc(OC)c2)C(=O)C12CCN(Cc1cccc3cccnc13)CC2 [Example 242]  6.37
21. COCCN1C(=O)N(Cc2cccc(-c3ccccc3)c2)C(=O)C12CCN(Cc1ccccc1)CC2 [Example 243]  6.37
22. COCCN1C(=O)N(Cc2cc(OC)cc(OC)c2)C(=O)C12CCN(Cc1cccc(OC)c1)CC2 [Example 237]  6.38
23. COCCN1C(=O)N(Cc2cccc(OC)c2)C(=O)C12CCN(Cc1cccc(-c3ccc(NC(C)=O)cc3)c1)CC2 [Example 238]  6.38
24. COCCN1C(=O)N(Cc2cccc(OC)c2)C(=O)C12CCN(Cc1cccc(OC)c1)CC2 [Example 239]  6.38
25. O=C1N(C/C=C/c2ccccc2)C(=O)C2(CCN(Cc3cccc4ccccc34)CC2)N1Cc1ccccn1 [Example 240]  6.38
26. COCCN1C(=O)N(Cc2ccc(OC(F)(F)F)cc2)C(=O)C12CCN(Cc1ccccc1)CC2 [Example 236]  6.40
27. COCCN1C(=O)N(CCCOc2ccccc2)C(=O)C12CCN(Cc1ccc3ccccc3c1)CC2 [Example 232]  6.41
28. COCCN1C(=O)N(Cc2cccc(OC)c2)C(=O)C12CCN(Cc1cccc(C)c1)CC2 [Example 233]  6.41
29. COCCN1C(=O)N(Cc2cccc(OC)c2)C(=O)C12CCN(Cc1ccccc1)CC2 [Example 234]  6.41
30. COCCN1C(=O)N(Cc2cccc(OC)c2)C(=O)C12CCN(Cc1cccc(Cl)c1)CC2 [Example 235]  6.41
